Assay results: the supplement of paper PMC10733146

Experiments:
Test in all cases: viability relative to DMSO control (fraction); higher = less drug effect (more viable cells)
Settings in all cases: 48 h
[1] = system: primary AML patient cells (S089)
Procedure, shortened: (§1)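 In 384-well plates with compounds pre-plated at five concentrations (one well per concentration), primary mononuclear tumour cells were plated at 4 × 10^4 cells per well. The cells came from blood or bone marrow by Ficoll isolation or from processed lymph node, and were used fresh or cryopreserved. Culture ran for 48 h at 37 °C and 5% CO2 in RPMI-1640 containing penicillin/streptomycin, L-glutamine and human serum. Viability was read as CellTiter-Glo luminescence, normalised to the median of 16 inner DMSO wells.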

[2] = system: primary AML patient cells (S085)
Procedure, shortened: as §1

[3] = system: primary AML patient cells (S037)
Procedure, shortened: as §1

[4] = system: primary DLBCL patient cells (S076)
Procedure, shortened: as §1

[5] = system: primary AML patient cells (S025)
Procedure, shortened: as §1

[6] = system: primary T-NHL patient cells (S058)
Procedure, shortened: as §1

[7] = system: primary AML patient cells (S002)
Procedure, shortened: as §1

[8] = system: primary AML patient cells (S011)
Procedure, shortened: as §1

[9] = system: primary AML patient cells (S091)
Procedure, shortened: as §1

[10] = system: primary AML patient cells (S081)
Procedure, shortened: as §1

[11] = system: primary AML patient cells (S006)
Procedure, shortened: as §1

[12] = system: primary AML patient cells (S021)
Procedure, shortened: as §1

[13] = system: primary AML patient cells (S017)
Procedure, shortened: as §1

[14] = system: primary DLBCL patient cells (S049)
Procedure, shortened: as §1

[15] = system: primary CLL patient cells (S043)
Procedure, shortened: as §1

[16] = system: primary AML patient cells (S012)
Procedure, shortened: as §1

[17] = system: primary AML patient cells (S019)
Procedure, shortened: as §1

Structure (SMILES): Nc1ccn([C@@H]2O[C@H](CO)[C@@H](O)[C@@H]2O)c(=O)n1 [Cytarabine]
- viability ([1]; 0.032 µM): 1.1
- viability ([1]; 0.16 µM): 0.993
- viability ([1]; 0.8 µM): 0.783
- viability ([1]; 4 µM): 0.142
- viability ([1]; 20 µM): 0.0678
- viability ([2]; 0.032 µM): 1.1
- viability ([2]; 0.16 µM): 1.02
- viability ([2]; 0.8 µM): 0.925
- viability ([2]; 4 µM): 0.372
- viability ([2]; 20 µM): 0.106
- viability ([3]; 0.032 µM): 1.08
- viability ([3]; 0.16 µM): 1.03
- viability ([3]; 0.8 µM): 1.02
- viability ([3]; 4 µM): 0.666
- viability ([3]; 20 µM): 0.467
- viability ([4]; 0.032 µM): 1.01
- viability ([4]; 0.16 µM): 0.793
- viability ([4]; 0.8 µM): 0.711
- viability ([4]; 4 µM): 0.319
- viability ([4]; 20 µM): 0.118
- viability ([5]; 0.032 µM): 1.02
- viability ([5]; 0.16 µM): 0.877
- viability ([5]; 0.8 µM): 0.649
- viability ([5]; 4 µM): 0.324
- viability ([5]; 20 µM): 0.112
- viability ([6]; 0.032 µM): 0.81
- viability ([6]; 0.16 µM): 0.397
- viability ([6]; 0.8 µM): 0.237
- viability ([6]; 4 µM): 0.166
- viability ([6]; 20 µM): 0.108
- viability ([7]; 0.032 µM): 1.04
- viability ([7]; 0.16 µM): 0.899
- viability ([7]; 0.8 µM): 0.607
- viability ([7]; 4 µM): 0.317
- viability ([7]; 20 µM): 0.26
- viability ([8]; 0.032 µM): 1.52
- viability ([8]; 0.16 µM): 1.04
- viability ([8]; 0.8 µM): 0.942
- viability ([8]; 4 µM): 0.681
- viability ([8]; 20 µM): 0.224
- viability ([9]; 0.032 µM): 0.974
- viability ([9]; 0.16 µM): 0.858
- viability ([9]; 0.8 µM): 0.694
- viability ([9]; 4 µM): 0.513
- viability ([9]; 20 µM): 0.409
- viability ([10]; 0.032 µM): 1.1
- viability ([10]; 0.16 µM): 1.07
- viability ([10]; 0.8 µM): 1.14
- viability ([10]; 4 µM): 0.884
- viability ([10]; 20 µM): 0.4
- viability ([11]; 0.032 µM): 1.09
- viability ([11]; 0.16 µM): 0.996
- viability ([11]; 0.8 µM): 0.773
- viability ([11]; 4 µM): 0.147
- viability ([11]; 20 µM): 0.0817
- viability ([12]; 0.032 µM): 1.03
- viability ([12]; 0.16 µM): 1.1
- viability ([12]; 0.8 µM): 0.882
- viability ([12]; 4 µM): 0.849
- viability ([12]; 20 µM): 0.419
- viability ([13]; 0.032 µM): 1.11
- viability ([13]; 0.16 µM): 1.07
- viability ([13]; 0.8 µM): 1.15
- viability ([13]; 4 µM): 0.665
- viability ([13]; 20 µM): 0.303
- viability ([14]; 0.032 µM): 1.01
- viability ([14]; 0.16 µM): 0.886
- viability ([14]; 0.8 µM): 0.673
- viability ([14]; 4 µM): 0.264
- viability ([14]; 20 µM): 0.143
- viability ([15]; 0.032 µM): 1.1
- viability ([15]; 0.16 µM): 0.975
- viability ([15]; 0.8 µM): 0.707
- viability ([15]; 4 µM): 0.236
- viability ([15]; 20 µM): 0.0952
- viability ([16]; 0.032 µM): 0.99
- viability ([16]; 0.16 µM): 0.927
- viability ([16]; 0.8 µM): 0.985
- viability ([16]; 4 µM): 0.935
- viability ([16]; 20 µM): 0.602
- viability ([17]; 0.032 µM): 1.19
- viability ([17]; 0.16 µM): 1.15
- viability ([17]; 0.8 µM): 0.871
- viability ([17]; 4 µM): 0.387
- viability ([17]; 20 µM): 0.24
